Measured values taken from the supplement of paper PMC4862054.

What was measured:
Details in all cases: incubation time: 72 h
[1] = tested on: BT-474; test: normalised response (% of control), CellTox Green; higher = less cell death (100 = DMSO, 0 = benzethonium chloride kill control)
In short: (§1)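 In 384-well plates holding compound at 5 concentrations in 10-fold steps over a 10,000-fold range specific to each compound, breast cancer cell lines were seeded as 20 µl suspension and incubated 72 h. CellTox Green fluorescence was measured at 485/520 nm, after which CellTiter-Glo luminescence was measured following 10 min at room temperature. Plate signals were normalised to 0.1 % DMSO (100) and a positive kill control (0), and each value is the normalised signal at a single concentration.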

[2] = tested on: BT-549; test: as above
In short: as §1

[3] = tested on: CAL-120; test: as above
In short: as §1

[4] = tested on: CAL-148; test: as above
In short: as §1

[5] = tested on: CAL-51; test: as above
In short: as §1

[6] = tested on: CAL-85-1; test: as above
In short: as §1

[7] = tested on: DU-4475; test: as above
In short: as §1

[8] = tested on: HCC1143; test: as above
In short: as §1

[9] = tested on: HCC1599; test: as above
In short: as §1

[10] = tested on: HCC1937; test: as above
In short: as §1

[11] = tested on: HDQ-P1; test: as above
In short: as §1

[12] = tested on: Hs578T; test: as above
In short: as §1

[13] = tested on: MCF-10A; test: as above
In short: as §1

[14] = tested on: MDA-MB-231; test: as above
In short: as §1

[15] = tested on: MDA-MB-436; test: as above
In short: as §1

[16] = tested on: MDA-MB-453; test: as above
In short: as §1

[17] = tested on: MDA-MB-468; test: as above
In short: as §1

[18] = tested on: MFM-223; test: as above
In short: as §1

[19] = tested on: BT-474; test: normalised response (% of control), CellTiter-Glo; higher = more viable cells (100 = DMSO, 0 = benzethonium chloride kill control)
In short: as §1

[20] = tested on: BT-549; test: as above
In short: as §1

[21] = tested on: CAL-120; test: as above
In short: as §1

[22] = tested on: CAL-148; test: as above
In short: as §1

[23] = tested on: CAL-51; test: as above
In short: as §1

[24] = tested on: CAL-85-1; test: as above
In short: as §1

[25] = tested on: DU-4475; test: as above
In short: as §1

[26] = tested on: HCC1143; test: as above
In short: as §1

[27] = tested on: HCC1599; test: as above
In short: as §1

[28] = tested on: HCC1937; test: as above
In short: as §1

[29] = tested on: HDQ-P1; test: as above
In short: as §1

[30] = tested on: Hs578T; test: as above
In short: as §1

[31] = tested on: MCF-10A; test: as above
In short: as §1

[32] = tested on: MDA-MB-231; test: as above
In short: as §1

[33] = tested on: MDA-MB-436; test: as above
In short: as §1

[34] = tested on: MDA-MB-453; test: as above
In short: as §1

[35] = tested on: MDA-MB-468; test: as above
In short: as §1

[36] = tested on: MFM-223; test: as above
In short: as §1

[37] = tested on: SK-BR-3; test: as above
In short: as §1

Row | SMILES | normalised response [1] [%] | normalised response [2] [%] | normalised response [3] [%] | normalised response [4] [%] | normalised response [5] [%] | normalised response [6] [%] | normalised response [7] [%] | normalised response [8] [%] | normalised response [9] [%] | normalised response [10] [%] | normalised response [11] [%] | normalised response [12] [%] | normalised response [13] [%] | normalised response [14] [%] | normalised response [15] [%] | normalised response [16] [%] | normalised response [17] [%] | normalised response [18] [%] | normalised response [19] [%] | normalised response [20] [%] | normalised response [21] [%] | normalised response [22] [%] | normalised response [23] [%] | normalised response [24] [%] | normalised response [25] [%] | normalised response [26] [%] | normalised response [27] [%] | normalised response [28] [%] | normalised response [29] [%] | normalised response [30] [%] | normalised response [31] [%] | normalised response [32] [%] | normalised response [33] [%] | normalised response [34] [%] | normalised response [35] [%] | normalised response [36] [%] | normalised response [37] [%]
1 | CCC1=C[C@@H]2CN(C1)Cc1c([nH]c3ccccc13)[C@@](C(=O)OC)(c1cc3c(cc1OC)N(C)[C@H]1[C@@](O)(C(=O)OC)[C@H](OC(C)=O)[C@]4(CC)C=CCN5CC[C@]31[C@@H]54)C2 [Vinorelbine] (100 nM) | 76.3 | 80.3 | 84.8 | 67.3 | 28.6 | 51.3 | 101 | 85.7 | 90.6 | 88.4 | 93.5 | 49.2 | -12.8 | 71.5 | 90.9 | 83.8 | 29.7 | 59.8 | 70.2 | 31.6 | 58.1 | 42.8 | 68.2 | 31.1 | 91.7 | 45.6 | 62.8 | 71.4 | 75.8 | 48.1 | 59.5 | 74.9 | 38.8 | 59.7 | 21 | 59.8 | 10.4
2 | Cn1c(CCCC(=O)O)nc2cc(N(CCCl)CCCl)ccc21 [Bendamustine] (100 nM) | 102 | 101 | 97.4 | 107 | 111 | 89.6 | 103 | 110 | 109 | 88.6 | 88.7 | 105 | 73.5 | 102 | 91.8 | 105 | 141 | 105 | 104 | 106 | 103 | 117 | 107 | 97.3 | 101 | 111 | 99.1 | 105 | 102 | 103 | 108 | 104 | 97.6 | 125 | 106 | 106 | 108
3 | CCC1(c2ccc(N)cc2)CCC(=O)NC1=O (centres undefined) [Aminoglutethimide] (100 nM) | 101 | 98 | 98.6 |  | 113 | 106 | 98.3 | 96.9 | 104 | 102 | 88.9 | 103 | 99.1 | 98 | 109 | 103 | 119 | 92.2 | 99.1 | 108 | 108 | 105 | 117 | 107 | 100 | 95.3 | 90.5 | 94.7 | 98.5 | 98.3 | 94.1 | 104 | 98.3 | 103 | 100 | 102 | 99.3
4 | N[C@@H](CSC(c1ccccc1)(c1ccccc1)c1ccccc1)C(=O)O [S-trityl-L-cysteine] (400 nM) | 94.5 | 71.8 | 97.1 | 80.7 | 110 | 99.5 | 97.9 | 111 | 101 | 61.4 | 109 | 79.2 | 109 | 104 | 72.6 | 102 | 125 | 102 | 102 | 100 | 104 | 102 | 105 | 102 | 101 | 102 | 112 | 98.2 | 99 | 97.3 | 92.4 | 101 | 98.9 | 104 | 105 | 103 | 93.5
5 | CCC(C)(C)C(=O)O[C@H]1C[C@@H](C)C=C2C=C[C@H](C)[C@H](CC[C@@H]3C[C@@H](O)CC(=O)O3)[C@H]21 [Simvastatin] (100 nM) | 97.3 | 59.3 |  | 99.7 | 113 |  | 105 | 91 | 95.1 | 68.8 | 78.8 | 75.5 | 107 | 115 |  | 77.8 | 94.2 | 102 | 97.5 | 94.5 | 100 | 107 | 104 | 98.9 | 98.4 | 105 | 89.2 | 99 | 102 | 102 | 111 | 98.6 | 99.7 | 95.5 | 93.7 | 105 | 105
6 | C[C@]12CC[C@@H]3c4ccc(O)cc4C[C@@H](CCCCCCCCC[S+]([O-])CCCC(F)(F)C(F)(F)F)[C@H]3[C@@H]1CC[C@@H]2O (some centres undefined) [Fulvestrant] (10 nM) | 99.8 | 104 | 101 | 104 | 109 | 102 | 103 | 107 | 105 | 121 | 97.2 | 100 | 104 | 115 | 107 | 79.4 | 86.1 |  | 104 | 106 | 103 | 105 | 111 | 97.9 | 101 | 105 | 108 | 92.8 | 96.1 | 102 | 109 | 106 | 103 | 103 | 108 | 104 | 105
7 | C=C(c1ccc(C(=O)O)cc1)c1cc2c(cc1C)C(C)(C)CCC2(C)C [Bexarotene] (100 nM) | 97 | 92.4 | 99.7 | 95.2 | 96.9 | 95.8 | 98.8 | 97.9 | 105 | 105 | 108 | 98.7 | 104 |  | 94.1 | 96.1 | 108 | 81.8 | 109 | 105 | 104 | 101 | 80.1 | 105 | 104 | 104 | 90.8 | 100 | 104 | 95.9 | 91.8 | 101 | 98 | 117 | 104 | 108 | 88.6
8 | O=C(CCCCCCC(=O)Nc1ccc([C@H]2O[C@@H](CSc3nc(-c4ccccc4)c(-c4ccccc4)o3)C[C@@H](c3ccc(CO)cc3)O2)cc1)NO [Tubacin] (100 nM) | 102 | 102 | 105 | 98.1 | 101 | 99.6 | 100 | 99 | 102 | 83.3 | 87.9 | 98.1 | 104 | 110 |  | 99.4 | 82.4 | 103 | 94.8 | 96.7 | 112 | 106 | 89.2 | 97.2 | 102 | 96 | 85.2 | 92.8 | 88.2 | 94.6 | 106 | 97 | 96.8 | 96.1 | 95.3 | 97 | 97.1
